For series [1] the following is noted: cited from earlier work.
The next series has as its system β-subunits. Put plainly: co-immunoprecipitation / co-precipitation of BARP with β-subunits. The series is classed as binding. As to the method:
To verify that BARP binds to the β-subunits in mammalian cells, co-immunoprecipitation experiments were carried out in COS-1 cells. […] To confirm this association in vivo, we determined the subcellular localization of the β-subunits in the presence of BARP in transfected PC12 and COS-1 cells.
To examine that domain I is indeed a AID-like region, we first mutated the known amino acids in the β-subunit hydrophobic groove responsible for AID interaction, and tested these mutants for association with either AID or BARP domain I by co-precipitation studies. In comparison with the AID domain that only required M196 as a crucial interacting site, almost all amino acid substitutions in the hydrophobic groove of β-subunits interfered with BARP domain I interaction (FIG. 2Cb).
Next, we determined if additional binding sites in BARP are present for β-subunit association. With the use of truncated form of the protein, in which the domain I was abolished, and co-precipitation experiments, we identified a second domain (Dom. II) downstream to the first one (FIG. 2Da).
To further confirm that both domains associate to the β-subunit in the context of full-length BARP, domain I and II were mutated to abolish their respective interaction. […]

The target in a further series is T1, β3/AID complex (Rattus norvegicus, UniProt P54287).
T1 construct: expressed in transfected cells; host or cells: COS-1 (β3 lysate)
T1 sequence (P54287 whole entry, one chain of several): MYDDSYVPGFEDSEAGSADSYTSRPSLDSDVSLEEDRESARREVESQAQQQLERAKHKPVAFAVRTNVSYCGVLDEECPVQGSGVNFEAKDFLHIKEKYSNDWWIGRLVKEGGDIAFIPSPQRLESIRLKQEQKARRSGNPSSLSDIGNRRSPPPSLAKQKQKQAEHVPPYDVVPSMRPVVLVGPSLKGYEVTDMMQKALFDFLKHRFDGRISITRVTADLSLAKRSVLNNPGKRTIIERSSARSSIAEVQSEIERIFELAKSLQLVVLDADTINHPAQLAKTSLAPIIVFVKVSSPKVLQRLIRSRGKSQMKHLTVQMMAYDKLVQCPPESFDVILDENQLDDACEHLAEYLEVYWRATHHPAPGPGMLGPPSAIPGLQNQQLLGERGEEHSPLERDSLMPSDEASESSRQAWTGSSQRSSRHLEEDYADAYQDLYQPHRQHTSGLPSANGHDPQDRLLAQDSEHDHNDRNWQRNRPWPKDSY
Put plainly: dissociation of β3-subunits from GST-AID by competitive peptides. The series is classed as binding. As to conditions: peptide 30, 60, 300, 600 nM, four hours, Western blot of supernatant. The source says:
A, Cell surface expression of HA-epitope tagged Cav1.2 and N-Myc BARP in the presence or absence of Cavβ-subunits. Intact cells expressing Cav1.2, BARP and Cavβ-subunits were immunostained with HA and Myc antibodies. Cav 1.2 AID (X) is a mutant deficient in the β-interacting domain. BARP (db) is a mutant deficient in domain I and II, BARP (LW), or BARP (LFFL), mutants are deficient in domain I and II, respectively. Non-permeabilized TsA201 cells co-expressing wt or mutated HA-Cav1.2, wt or mutated Myc-BARP and the Cavβ-subunits were immunostained with antibodies to HA (green) and Myc (red). Cav 1.2 AID (X) and BARP (db) are mutants defective in Cavβ-subunit binding. […] In vivo expressed Cavβ3-subunits were pulled-down using a GST-AID fusion protein and the complex then incubated with increasing amounts of AID or BARP Domain I peptide. The Cavβ3-subunit displaced from the GST-AID was monitored by Western blot. […] Effects of wt or mutated BARP on the I-V relationship of Ca^2+-channels are shown. […]
To verify if the AID-like domain of BARP dissociates β-subunits from the AID of α1-subunits, COS-1 cells lysate expressing β3 subunits was incubated with GST-AID fusion protein to form a β3/AID complex and subsequently, the dissociation of β3 subunits was monitored after addition of an increasing amount of competitive AID or AID-like BARP peptide (FIG. 4D).
A general note: In western blotting, separated proteins are transferred to a membrane and probed.

Consider `COC(=O)C1=C(C)NC(C)=C([N+](=O)[O-])C1c1ccccc1C(F)(F)F` (stereo not shown) [BayK 8644], for which, in series [1], the “side effects in vivo” value was “severe side effects such as dystonic neurobehavioural syndrome, hypertension and arrhythmia”.
Regarding “Isolated BARP domain I: isolated AID-like β-interacting domain I of BARP, expressed as GST fusion”, in the series on β-subunits, the “association with β-subunit isoforms” value was “able to associate with all known) β-subunit isoforms”.
Consider “SYRDLWSLRASLELHAATASD [BARP Domain I peptide]”, for which the “dissociation of β3-subunit from GST-AID” value in the series with β3/AID complex is given as “displaces the Cavβ3-subunit from the AID”.
On to “isolated domain II: isolated second β-interacting domain of BARP (SEQ ID NO:8) (PRAWPRRPRRDYSIDEKTDALFHEFLRHDPHFDDAPRHR)”, for which, in the series on β-subunits, the “association with β-subunit isoforms” value is “interacted with β2, β3 and β4, but not with β1 isoforms”.

The record behind these values is patent US9018000B2, “Voltage gated calcium channel β-subunit anchoring regulator protein and uses thereof” (Agency for Science, Technology and Research, priority 2007, dated 2015).
